# What was measured:
# Assay type in all cases: biochemical
# MAGL [1] = target: MAGL (Homo sapiens (Human), UniProt Q99685); test: In vitro competitive activity-based protein profiling, MAGL (human); conditions: 1 μM, human proteome; read-out: MAGL % inh. 1 μM (human)
# Description: (§1) In Vitro Competitive Activity-Based Protein Profiling.
# (§2) Proteomes (mouse brain membrane fraction or cell lysates for mouse assays; human prefrontal cortex or cell membrane fractions for human assays) (50 μL, 1.0 mg/mL total protein concentration) were preincubated with varying concentrations of inhibitors at 37° C. After 30 min, FP—Rh or HT-01 (1.0 μL, 50 μM in DMSO) was added and the mixture was incubated for another 30 min at 37° C. Reactions were quenched with SDS loading buffer (15 μL-4×) and run on SDS-PAGE. Following gel imaging, serine hydrolase activity was determined by measuring fluorescent intensity of gel bands corresponding to MAGL and FAAH using ImageJ 1.43u software.
# FAAH [2] = target: FAAH (Homo sapiens (Human), UniProt O00519); test: In vitro competitive activity-based protein profiling, FAAH (human); conditions: 1 μM, human proteome; read-out: FAAH % inh. 1 μM (human)
# Chain of FAAH (Homo sapiens (Human), UniProt O00519) (O00519 whole entry): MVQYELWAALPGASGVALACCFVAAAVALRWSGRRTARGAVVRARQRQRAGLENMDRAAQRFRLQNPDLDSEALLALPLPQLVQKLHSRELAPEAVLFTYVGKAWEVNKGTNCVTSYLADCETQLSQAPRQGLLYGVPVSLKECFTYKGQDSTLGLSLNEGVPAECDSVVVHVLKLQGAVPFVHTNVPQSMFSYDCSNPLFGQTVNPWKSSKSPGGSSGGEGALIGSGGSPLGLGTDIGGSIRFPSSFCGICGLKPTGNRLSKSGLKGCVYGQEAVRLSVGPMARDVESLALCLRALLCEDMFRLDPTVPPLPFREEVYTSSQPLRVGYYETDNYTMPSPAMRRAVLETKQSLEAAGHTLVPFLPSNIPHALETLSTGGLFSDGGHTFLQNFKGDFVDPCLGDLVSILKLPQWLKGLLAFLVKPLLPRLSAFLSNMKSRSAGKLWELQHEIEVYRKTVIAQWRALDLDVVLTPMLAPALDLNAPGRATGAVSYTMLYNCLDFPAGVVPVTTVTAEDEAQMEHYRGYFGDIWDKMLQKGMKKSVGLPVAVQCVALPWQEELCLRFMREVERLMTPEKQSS
# Description: as §1, §2
# MAGL [3] = target: MAGL (Mus musculus (Mouse), UniProt O35678); test: In vitro competitive activity-based protein profiling, MAGL (mouse); conditions: for inhibition at 1 µM: read-out: MAGL % inh. 1 μM (mouse)
# Chain of MAGL (Mus musculus (Mouse), UniProt O35678) (O35678 whole entry): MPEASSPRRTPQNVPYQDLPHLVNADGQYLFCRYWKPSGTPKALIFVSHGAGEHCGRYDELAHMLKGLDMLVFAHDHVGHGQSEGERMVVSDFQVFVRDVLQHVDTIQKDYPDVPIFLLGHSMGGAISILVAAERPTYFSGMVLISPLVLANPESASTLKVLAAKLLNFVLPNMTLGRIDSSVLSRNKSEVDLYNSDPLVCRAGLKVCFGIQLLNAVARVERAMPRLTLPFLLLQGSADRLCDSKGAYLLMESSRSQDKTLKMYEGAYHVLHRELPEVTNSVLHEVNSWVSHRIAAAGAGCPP
# How it was run: (§3)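 Residual MAGL and FAAH activity came from in-gel fluorescence after competition between inhibitor (30 min preincubation, 37° C) and the activity-based probe FP-Rh or HT-01 (30 min, 37° C) in mouse or human tissue or cell proteomes.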
# FAAH [4] = target: FAAH (Mus musculus (Mouse), UniProt O08914); test: In vitro competitive activity-based protein profiling, FAAH (mouse); conditions: for inhibition at 1 µM: read-out: FAAH % inh. 1 μM (mouse)
# Chain of FAAH (Mus musculus (Mouse), UniProt O08914) (O08914 whole entry): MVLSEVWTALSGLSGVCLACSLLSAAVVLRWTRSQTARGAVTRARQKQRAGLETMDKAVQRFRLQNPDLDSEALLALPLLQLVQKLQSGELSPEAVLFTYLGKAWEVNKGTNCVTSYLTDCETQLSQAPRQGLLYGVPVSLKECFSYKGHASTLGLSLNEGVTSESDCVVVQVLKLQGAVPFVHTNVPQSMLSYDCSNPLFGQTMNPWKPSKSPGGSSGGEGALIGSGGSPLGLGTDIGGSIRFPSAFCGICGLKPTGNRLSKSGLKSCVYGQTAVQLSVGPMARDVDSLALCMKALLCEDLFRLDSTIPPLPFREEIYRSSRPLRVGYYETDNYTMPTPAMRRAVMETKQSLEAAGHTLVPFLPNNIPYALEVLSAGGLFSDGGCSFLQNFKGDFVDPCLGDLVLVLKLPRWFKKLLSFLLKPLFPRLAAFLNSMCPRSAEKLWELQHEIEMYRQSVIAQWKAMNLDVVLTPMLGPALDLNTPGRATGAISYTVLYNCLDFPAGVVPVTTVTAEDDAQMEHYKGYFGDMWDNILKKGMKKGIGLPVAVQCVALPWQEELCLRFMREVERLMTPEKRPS
# How it was run: as §3
# Chain of MAGL (Homo sapiens (Human), UniProt Q99685) (Q99685 whole entry): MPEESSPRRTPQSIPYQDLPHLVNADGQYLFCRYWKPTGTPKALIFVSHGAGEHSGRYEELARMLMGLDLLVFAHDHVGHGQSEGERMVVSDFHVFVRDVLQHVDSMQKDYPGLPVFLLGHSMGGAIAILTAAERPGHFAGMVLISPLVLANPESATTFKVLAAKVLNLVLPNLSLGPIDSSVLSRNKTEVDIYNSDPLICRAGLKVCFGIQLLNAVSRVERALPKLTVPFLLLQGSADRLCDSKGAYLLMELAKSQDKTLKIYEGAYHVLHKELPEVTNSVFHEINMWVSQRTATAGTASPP
Structure (SMILES),inhibition at 1 µM (MAGL [1]) [%],inhibition at 1 µM (FAAH [2]) [%],IC50 (MAGL [3]) [nM],inhibition at 1 µM (MAGL [3]) [%],IC50 (FAAH [4]) [nM],inhibition at 1 µM (FAAH [4]) [%]
"CS(=O)(=O)Nc1cnn(C(=O)N2CCN(Cc3ccc(-c4nc5ccccc5o4)cc3C(F)(F)F)CC2)c1 [Example 304, N-(1-(4-(4-(benzo[d]oxazol-2-yl)-2-(trifluoromethyl)benzyl)piperazine-1-carbonyl)-1H-pyrazol-4-yl)methanesulfonamide]",25 to 50,≥ 75,–,–,–,–
"Cc1nccn1-c1ccc(CN2CCN(C(=O)n3cc(NS(C)(=O)=O)cn3)CC2)c(C(F)(F)F)c1 [Example 308, N-(1-(4-(4-(2-methyl-1H-imidazol-1-yl)-2-(trifluoromethyl)benzyl)piperazine-1-carbonyl)-1H-pyrazol-4-yl)methanesulfonamide]",≥ 75,0 to 25,–,–,–,–
"CN(Cc1ccccc1C(F)(F)F)[C@@H]1C[C@@H]2CN(C(=O)n3cc(NS(C)(=O)=O)cn3)C[C@@H]2C1 [Example 300, N-(1-(cis-5-(methyl(2-(trifluoromethyl)benzyl)amino)octahydrocyclopenta[c]pyrrole-2-carbonyl)-1H-pyrazol-4-yl)methanesulfonamide]",≥ 75,≥ 75,–,–,–,–
"CS(=O)(=O)Nc1cnn(C(=O)N2CCN(Cc3ccc(-c4nc5ccccc5s4)cc3C(F)(F)F)CC2)c1 [Example 305, N-(1-(4-(4-(benzo[d]thiazol-2-yl)-2-(trifluoromethyl)benzyl)piperazine-1-carbonyl)-1H-pyrazol-4-yl)methanesulfonamide]",≥ 75,≥ 75,–,–,–,–
"CS(=O)(=O)Nc1cnn(C(=O)N2CCN(Cc3ccc(-c4ccnnc4)cc3C(F)(F)F)CC2)c1 [Example 312, N-(1-(4-(4-(pyridazin-4-yl)-2-(trifluoromethyl)benzyl)piperazine-1-carbonyl)-1H-pyrazol-4-yl)methanesulfonamide]",≥ 75,25 to 50,–,–,–,–
"CS(=O)(=O)Nc1cnn(C(=O)N2CCN(Cc3ccc(-c4cncnc4)cc3C(F)(F)F)CC2)c1 [Example 290, N-(1-(4-(4-(pyrimidin-5-yl)-2-(trifluoromethyl)benzy1)piperazine-1-carbonyl)-1H-pyrazol-4-yl)methanesulfonamide]",≥ 75,≥ 75,–,–,–,–
"CC(=O)Nc1cnn(C(=O)N2CC3CN(Cc4cccc(Oc5ccc(Cl)cc5)c4)CC3C2)c1 (stereo not shown) [Example 316, N-(1-(5-(3-(4-chlorophenoxy)benzyl)octahydropyrrolo [3,4-c]pyrrole-2-carbonyl)-1H-pyrazol-4-yl)acetamide]",≥ 75,≥ 75,–,–,–,–
"CC(=O)N(C)c1cnn(C(=O)N2C[C@H]3C[C@@H](N(C)Cc4cc(N5C6CCC5COC6)cc(C(F)(F)F)c4)C[C@H]3C2)c1 [Example 151, N-(1-(cis-5-((3-(3-oxa-8-azabicyclo[3.2.1]octan-8-yl)-5-(trifluoromethyl)benzyl)(methyl)amino)octahydrocyclopenta[c]pyrrole-2-carbonyl)-1H-pyrazol-4-yl)-N-methylacetamide]",–,–,100 to 1000,≥ 75,100 to 1000,≥ 75
"CC(=O)N(C)c1cnn(C(=O)N2C[C@H]3C[C@@H](N(C)Cc4ccccc4Cl)C[C@H]3C2)c1 [Example 139, N-(1-(cis-5-((2-chlorobenzyl)(methyl)amino)octahydrocyclopenta[c]pyrrole-2-carbonyl)-1H-pyrazol-4-yl)-N-methylacetamide]",–,–,1000 to 10000,25 to 50,100 to 1000,≥ 75
"CC(=O)N(C)c1cnn(C(=O)N2CCN(Cc3ccccc3Cl)CC2)c1 [Example 192, N-(1-(4-(2-chlorobenzyl)piperazine-1-carbonyl)-1H-pyrazol-4-yl)-N-methylacetamide]",–,–,100 to 1000,≥ 75,100 to 1000,≥ 75
"CC(=O)N(C)c1cnn(C(=O)N2C[C@H]3C[C@H](N(C)Cc4cccc(Cl)c4)C[C@H]3C2)c1 [Example 147, N-(1-(trans-5-((3-chlorobenzyl)(methyl)amino)octahydrocyclopenta[c]pyrrole-2-carbonyl)-1H-pyrazol-4-yl)-N-methylacetamide]",–,–,≤ 100,≥ 75,≤ 100,≥ 75
CS(=O)(=O)Nc1cnn(C(=O)N2CCN(Cc3ccc(-c4ccc(C(N)=O)nc4)cc3C(F)(F)F)CC2)c1 [Example 302],–,–,–,25 to 50,–,≥ 75
"CC(=O)N(C)c1cnn(C(=O)N2CC3CN(Cc4ccc(OCc5ccccc5)cc4)CC3C2)c1 (stereo not shown) [Example 248, N-(1-(5-(4-(benzyloxy)benzyl)octahydropyrrolo[3,4-c]pyrrole-2-carbonyl)-1H-pyrazol-4-yl)-N-methylacetamide]",–,–,≤ 100,≥ 75,≤ 100,≥ 75
"CC(=O)N(C)c1cnn(C(=O)N2CC3CN(Cc4cccc(Cl)c4C)CC3C2)c1 (stereo not shown) [Example 103, N-(1-(5-(3-chloro-2-methylbenzyl)octahydropyrrolo[3,4-c]pyrrole-2-carbonyl)-1H-pyrazol-4-yl)-N-methylacetamide]",–,–,≤ 100,≥ 75,≤ 100,≥ 75
"CC(=O)N(C)c1cnn(C(=O)N2CC3CN(Cc4cccc(OCc5ccccc5)c4)CC3C2)c1 (stereo not shown) [Example 239, N-(1-(5-(3-(benzyloxy)benzyl)octahydropyrrolo[3,4-c]pyrrole-2-carbonyl)-1H-pyrazol-4-yl)-N-methylacetamide]",–,–,≤ 100,≥ 75,≤ 100,≥ 75
"CC(=O)N(C)c1cnn(C(=O)N2C[C@H]3C[C@H](N(C)Cc4cc(C(F)(F)F)ccc4Cl)C[C@H]3C2)c1 [Example 166, N-(1-(trans-5-((2-chloro-5-(trifluoromethyl)benzyl)(methyl)amino)octahydrocyclopenta[c]pyrrole-2-carbonyl)-1H-pyrazol-4-yl)-N-methylacetamide]",–,–,–,≥ 75,–,≥ 75

# The remaining lines, values ahead:
inhibition at 1 µM (MAGL [1]) [%],inhibition at 1 µM (FAAH [2]) [%],IC50 (MAGL [3]) [nM],inhibition at 1 µM (MAGL [3]) [%],IC50 (FAAH [4]) [nM],inhibition at 1 µM (FAAH [4]) [%],Structure (SMILES)
≥ 75,≥ 75,–,–,–,–,CS(=O)(=O)Nc1cnn(C(=O)N2CCN(Cc3ccc(-c4ncccn4)cc3C(F)(F)F)CC2)c1 [Example 310]
≥ 75,≥ 75,–,–,–,–,"CS(=O)(=O)Nc1cnn(C(=O)N2CCC3(CCN(Cc4ccc(N5CCCC5)c(Cl)c4)C3)CC2)c1 [Example 298, N-(1-(2-(3-chloro-4-(pyrrolidin-1-yl)benzyl)-2,8-diazaspiro[4.5]|decane-8-carbonyl)-1H-pyrazol-4-yl)methanesulfonamide]"
≥ 75,≥ 75,–,–,–,–,"CS(=O)(=O)Nc1cnn(C(=O)N2CCC3(CCN(Cc4ccc(Cl)c(Cl)c4)C3)C2)c1 (stereo not shown) [Example 283, N-(1-(7-(3,4-dichlorobenzyl)-2,7-diazaspiro[4.4]nonane-2-carbonyl)-1H-pyrazol-4-yl)methanesulfonamide]"
25 to 50,≥ 75,–,–,–,–,"C#Cc1ccc(CN2CCN(C(=O)n3cc(NS(C)(=O)=O)cn3)CC2)cc1 [Example 318, N-(1-(4-(4-ethynylbenzyl)piperazine-1-carbonyl)-1H-pyrazol-4-yl)methanesulfonamide]"
≥ 75,50 to 75,–,–,–,–,"CS(=O)(=O)Nc1cnn(C(=O)N2CCN(Cc3ccc(-c4cccnn4)cc3C(F)(F)F)CC2)c1 [Example 311, N-(1-(4-(4-(pyridazin-3-yl)-2-(trifluoromethyl)benzyl)piperazine-1-carbonyl)-1H-pyrazol-4-yl)methanesulforamide]"
≥ 75,≥ 75,–,–,–,–,"CS(=O)(=O)Nc1cnn(C(=O)N2CCC3(CCN(Cc4cccc(Cl)c4Cl)C3)C2)c1 (stereo not shown) [Example 288, N-(1-(7-(2,3-dichlorobenzyl)-2,7-diazaspiro[4.4]nonane-2-carbonyl)-1H-pyrazol-4-yl)methanesulfonamide]"
50 to 75,0 to 25,–,–,–,–,"Cc1nnc(-c2ccc(CN3CCN(C(=O)n4cc(NS(C)(=O)=O)cn4)CC3)c(C(F)(F)F)c2)o1 [Example 306, N-(1-(4-(4-(5-methyl-1,3,4-oxadiazol-2-yl)-2-(trifluoromethyl)benzyl)piperazine-1-carbonyl)-1H-pyrazol-4-yl)methanesulfonamide]"
–,–,–,≥ 75,–,≥ 75,"CC(=O)N(C)c1cnn(C(=O)N2CCC3(CCN(Cc4cc(C(F)(F)F)ccc4Cl)C3)C2)c1 (stereo not shown) [Example 71, N-(1-(7-(2-chloro-5-(trifluoromethyl)benzyl)-2,7-diazaspiro[4.4]nonane-2-carbonyl)-1H-pyrazol-4-yl)-N-methylacetamide]"
–,–,–,≥ 75,–,25 to 50,"CC(=O)N(C)c1cnn(C(=O)N2CCC3(CC2)CN(Cc2ccc(C)cc2)C3)c1 [Example 32, N-methyl-N-(1-(2-(4-methylbenzyl)-2,7-diazaspiro[3.5]nonane-7-carbonyl)-1H-pyrazol-4-yl)acetamide]"
